Laboratory results: ChEMBL document CHEMBL1201862, “PubChem BioAssay data set” (2004)
Blank lines part the entries; values can stand above or below the molecule they belong to. Calls of active or inactive are those of the source.

Assays:
[1] = NIH3T3 cell viability loss – ATP luminescence, mouse fibroblasts, counter-screen, dose response (AID 2010); type: functional, cell-based;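 further: cells exposed to compound for about 90 hours before reading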
[2] = Trypanosoma cruzi growth suppression in host cells – NIH3T3 host cells, beta-gal luminescence, confirmation (AID 2044); type: functional, cell-based;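 further: intracellular parasites grown in NIH/3T3 mouse fibroblasts as host cells; luminescent beta-galactosidase reporter signal from transgenic T. cruzi replicating inside host cells; inhibitors lower the luminescence signal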
Transthyretin = Transthyretin (Homo sapiens, UniProt P02766); test: Luminescence-based cell-based high throughput dose response assay to identify activators of Transthyretin (TTR) transcription.; type: functional
[3] = viability loss in Vero cells – cytotoxicity control for Vif-APOBEC3G degradation inhibitor project, dose response (AID 1117358); type: functional; settings: Vero
[4] = target: Induced myeloid leukemia cell differentiation protein Mcl-1 (Homo sapiens, UniProt Q07820); type: functional
Protein Tat = Protein Tat (Human immunodeficiency virus type 1 group M subtype B (isolate HXB2)(HIV-1), UniProt P04608); type: functional;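 further: tat binding to TAR RNA read out by fluorescence polarization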
[5] = target: Glutathione-S-transferase (Schistosoma japonicum, UniProt Q26513); test: GST-antibody interaction or FRET quenching – biochemical, TR-FRET, artefact control for Vif-APOBEC3G degradation inhibitor project, dose response (AID 1117362); type: functional
[6] = target: 1-phosphatidylinositol 4,5-bisphosphate phosphodiesterase beta-3 (Homo sapiens, UniProt Q01970); test: Fluorescence-based biochemical high throughput dose response assay to identify inhibitors of phospholipase C isozymes (PLC-B3).
[7] = target: RNA-editing ligase 1, mitochondrial (Trypanosoma brucei brucei, UniProt P86926); test: inhibition of trypanosome RNA editing ligase – biochemical, fluorescence, Trypanosoma brucei, dose response (AID 1117295); type: functional
[8] = target: T1, RNA-binding protein pos-1 (Caenorhabditis elegans, UniProt G5EF15); test: disruptors of C. elegans POS-1 RNA interaction – biochemical, fluorescence polarization, dose response (AID 1964);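 further: purified POS-1 fused to maltose binding protein made in E. coli; potency of compounds blocking POS-1 binding to fluorescent RNA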
T1 sequence (G5EF15 whole entry): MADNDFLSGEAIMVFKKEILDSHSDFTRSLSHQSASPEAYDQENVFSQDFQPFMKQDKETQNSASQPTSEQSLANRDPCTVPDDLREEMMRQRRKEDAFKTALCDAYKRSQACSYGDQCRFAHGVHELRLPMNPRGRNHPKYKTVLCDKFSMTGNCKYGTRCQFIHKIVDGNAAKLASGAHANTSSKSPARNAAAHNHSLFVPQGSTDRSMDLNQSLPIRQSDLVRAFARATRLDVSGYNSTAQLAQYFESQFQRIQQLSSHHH

[9] = target: DNA (cytosine-5)-methyltransferase 1 (Homo sapiens, UniProt P26358); test: inhibition of DNA methylation by DNMT1 – biochemical, fluorescent molecular beacon, confirmation (AID 602386); type: functional
[10] = target: T2, Zinc finger protein mex-5 (Caenorhabditis elegans, UniProt Q9XUB2); test: potency of MEX-5 RNA-binding blockers – biochemical, C. elegans, fluorescence polarization, dose response (AID 1960)
T2 sequence (Q9XUB2 whole entry): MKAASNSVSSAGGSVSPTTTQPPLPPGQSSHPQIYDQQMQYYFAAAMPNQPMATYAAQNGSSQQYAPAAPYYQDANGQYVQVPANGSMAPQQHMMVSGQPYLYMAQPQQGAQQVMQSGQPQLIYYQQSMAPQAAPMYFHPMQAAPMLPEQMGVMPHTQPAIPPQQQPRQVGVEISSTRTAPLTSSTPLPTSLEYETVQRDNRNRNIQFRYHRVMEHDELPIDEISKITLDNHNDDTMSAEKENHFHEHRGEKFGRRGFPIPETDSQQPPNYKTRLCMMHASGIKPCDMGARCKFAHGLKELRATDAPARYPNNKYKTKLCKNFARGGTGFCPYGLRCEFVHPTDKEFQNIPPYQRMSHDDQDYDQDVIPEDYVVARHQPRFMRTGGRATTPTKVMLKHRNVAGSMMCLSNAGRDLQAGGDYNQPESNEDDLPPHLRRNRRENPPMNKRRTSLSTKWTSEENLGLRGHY

Caspase-9 = Caspase-9 (Homo sapiens, UniProt P55211); test: inhibitors of purified CASP9 protease – biochemical, fluorescence, plate reader, cherry-picked samples, selectivity assay for caspase-6 inhibitor project, dose response (AID 743293)
[11] = target: T3, Histone-lysine N-methyltransferase NSD2 (Homo sapiens, UniProt O96028); type: biochemical
T3 sequence (O96028 whole entry): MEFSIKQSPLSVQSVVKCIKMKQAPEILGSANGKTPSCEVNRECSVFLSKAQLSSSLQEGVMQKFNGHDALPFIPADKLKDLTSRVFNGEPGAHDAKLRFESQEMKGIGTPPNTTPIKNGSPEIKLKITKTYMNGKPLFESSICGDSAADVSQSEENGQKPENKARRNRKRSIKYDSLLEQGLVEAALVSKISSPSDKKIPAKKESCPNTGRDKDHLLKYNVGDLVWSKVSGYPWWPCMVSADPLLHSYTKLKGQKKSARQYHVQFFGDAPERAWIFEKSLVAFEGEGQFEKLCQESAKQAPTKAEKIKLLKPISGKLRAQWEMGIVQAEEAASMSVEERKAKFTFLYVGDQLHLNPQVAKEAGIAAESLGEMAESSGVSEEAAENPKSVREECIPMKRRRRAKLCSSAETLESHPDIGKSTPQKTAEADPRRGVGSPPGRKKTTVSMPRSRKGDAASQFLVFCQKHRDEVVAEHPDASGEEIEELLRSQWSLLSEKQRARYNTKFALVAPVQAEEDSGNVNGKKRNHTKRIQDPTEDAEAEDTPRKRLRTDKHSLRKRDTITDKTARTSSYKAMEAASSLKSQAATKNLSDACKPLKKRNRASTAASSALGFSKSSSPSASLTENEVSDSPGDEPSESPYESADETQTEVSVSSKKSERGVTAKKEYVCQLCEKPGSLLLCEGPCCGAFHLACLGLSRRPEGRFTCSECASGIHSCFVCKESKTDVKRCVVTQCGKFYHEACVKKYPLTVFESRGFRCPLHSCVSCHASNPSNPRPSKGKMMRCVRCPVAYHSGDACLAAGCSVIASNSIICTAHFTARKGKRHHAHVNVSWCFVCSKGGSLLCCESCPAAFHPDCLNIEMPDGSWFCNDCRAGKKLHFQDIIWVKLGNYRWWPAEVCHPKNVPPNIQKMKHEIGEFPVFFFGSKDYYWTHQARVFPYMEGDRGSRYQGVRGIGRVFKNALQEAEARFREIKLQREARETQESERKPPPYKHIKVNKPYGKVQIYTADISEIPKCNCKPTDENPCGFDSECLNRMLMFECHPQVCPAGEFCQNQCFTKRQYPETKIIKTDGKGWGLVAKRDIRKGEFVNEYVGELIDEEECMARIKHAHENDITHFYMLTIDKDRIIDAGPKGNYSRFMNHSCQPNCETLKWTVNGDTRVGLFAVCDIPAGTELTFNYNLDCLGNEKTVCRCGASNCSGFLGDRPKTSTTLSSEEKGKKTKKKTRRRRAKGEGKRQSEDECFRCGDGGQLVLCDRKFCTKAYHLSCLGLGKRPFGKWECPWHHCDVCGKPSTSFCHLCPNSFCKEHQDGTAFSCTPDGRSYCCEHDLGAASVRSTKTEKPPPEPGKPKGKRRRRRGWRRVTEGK

[12] = target: 1-phosphatidylinositol 4,5-bisphosphate phosphodiesterase gamma-1 (Homo sapiens, UniProt P19174); test: Counterscreen for inhibitors of phospholipase C isozymes (PLC-B3): Fluorescence-based biochemical high throughput dose response assay to identify inhibitors of phospholipase C isozymes (PLC-gamma1).
Caspase-6 = Caspase-6 (Homo sapiens, UniProt P55212); test: inhibition of CASP6 peptide cleavage – biochemical, VEID-R110 fluorescence, cherry-pick, dose response (AID 720632)
Sequence of Caspase-6 (P55212 24-179 limits assumed): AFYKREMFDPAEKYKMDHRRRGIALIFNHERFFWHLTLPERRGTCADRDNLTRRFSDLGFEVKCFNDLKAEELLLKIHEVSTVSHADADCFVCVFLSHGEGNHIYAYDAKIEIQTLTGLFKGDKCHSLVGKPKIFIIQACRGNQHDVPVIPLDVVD
Sequence of Caspase-6 (P55212 194-293 limits assumed): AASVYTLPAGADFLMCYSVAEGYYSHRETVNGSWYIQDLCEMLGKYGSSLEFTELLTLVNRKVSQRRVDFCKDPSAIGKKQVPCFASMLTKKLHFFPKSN

Sequence of 1-phosphatidylinositol 4,5-bisphosphate phosphodiesterase gamma-1 (P19174 whole entry): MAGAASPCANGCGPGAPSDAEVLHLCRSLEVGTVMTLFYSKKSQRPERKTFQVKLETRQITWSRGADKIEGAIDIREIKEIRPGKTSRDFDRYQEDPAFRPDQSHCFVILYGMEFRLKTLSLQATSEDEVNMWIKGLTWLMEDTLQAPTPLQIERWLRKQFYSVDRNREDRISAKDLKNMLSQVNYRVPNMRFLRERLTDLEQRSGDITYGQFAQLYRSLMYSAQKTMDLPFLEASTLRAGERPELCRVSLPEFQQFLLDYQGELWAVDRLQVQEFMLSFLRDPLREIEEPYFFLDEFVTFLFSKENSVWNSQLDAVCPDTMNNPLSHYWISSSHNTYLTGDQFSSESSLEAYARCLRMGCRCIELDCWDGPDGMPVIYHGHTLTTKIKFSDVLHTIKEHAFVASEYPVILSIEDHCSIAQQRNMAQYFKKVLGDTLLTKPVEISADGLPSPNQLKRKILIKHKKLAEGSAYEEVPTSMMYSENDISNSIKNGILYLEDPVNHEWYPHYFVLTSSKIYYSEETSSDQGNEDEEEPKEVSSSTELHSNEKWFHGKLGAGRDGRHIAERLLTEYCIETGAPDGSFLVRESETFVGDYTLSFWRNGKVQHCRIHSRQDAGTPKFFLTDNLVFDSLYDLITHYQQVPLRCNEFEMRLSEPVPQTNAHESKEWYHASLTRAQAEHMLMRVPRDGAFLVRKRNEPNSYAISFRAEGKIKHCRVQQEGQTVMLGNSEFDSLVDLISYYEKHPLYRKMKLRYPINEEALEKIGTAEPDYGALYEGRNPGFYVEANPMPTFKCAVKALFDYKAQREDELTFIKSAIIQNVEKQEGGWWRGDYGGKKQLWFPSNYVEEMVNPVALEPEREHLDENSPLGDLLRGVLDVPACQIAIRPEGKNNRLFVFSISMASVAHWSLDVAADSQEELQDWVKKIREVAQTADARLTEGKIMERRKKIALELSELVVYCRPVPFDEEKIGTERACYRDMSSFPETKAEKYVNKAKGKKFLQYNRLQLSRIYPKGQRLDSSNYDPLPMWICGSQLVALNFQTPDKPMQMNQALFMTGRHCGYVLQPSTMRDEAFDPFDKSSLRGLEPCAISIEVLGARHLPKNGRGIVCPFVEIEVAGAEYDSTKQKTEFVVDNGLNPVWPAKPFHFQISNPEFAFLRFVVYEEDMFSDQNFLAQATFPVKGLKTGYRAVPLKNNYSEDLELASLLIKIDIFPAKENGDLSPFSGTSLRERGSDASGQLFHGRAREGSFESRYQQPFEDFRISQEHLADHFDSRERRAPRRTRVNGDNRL
Sequence of Induced myeloid leukemia cell differentiation protein Mcl-1 (Q07820 whole entry): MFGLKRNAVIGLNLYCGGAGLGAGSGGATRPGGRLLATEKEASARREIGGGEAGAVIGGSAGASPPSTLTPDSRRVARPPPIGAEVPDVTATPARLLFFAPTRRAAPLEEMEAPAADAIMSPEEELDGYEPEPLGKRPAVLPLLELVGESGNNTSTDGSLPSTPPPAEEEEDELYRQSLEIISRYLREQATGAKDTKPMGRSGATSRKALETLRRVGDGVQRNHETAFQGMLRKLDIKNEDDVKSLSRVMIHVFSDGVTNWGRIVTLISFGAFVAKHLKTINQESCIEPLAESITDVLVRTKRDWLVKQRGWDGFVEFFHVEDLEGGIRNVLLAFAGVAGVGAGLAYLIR
Sequence of RNA-editing ligase 1, mitochondrial (P86926 whole entry, the tested form may be a part): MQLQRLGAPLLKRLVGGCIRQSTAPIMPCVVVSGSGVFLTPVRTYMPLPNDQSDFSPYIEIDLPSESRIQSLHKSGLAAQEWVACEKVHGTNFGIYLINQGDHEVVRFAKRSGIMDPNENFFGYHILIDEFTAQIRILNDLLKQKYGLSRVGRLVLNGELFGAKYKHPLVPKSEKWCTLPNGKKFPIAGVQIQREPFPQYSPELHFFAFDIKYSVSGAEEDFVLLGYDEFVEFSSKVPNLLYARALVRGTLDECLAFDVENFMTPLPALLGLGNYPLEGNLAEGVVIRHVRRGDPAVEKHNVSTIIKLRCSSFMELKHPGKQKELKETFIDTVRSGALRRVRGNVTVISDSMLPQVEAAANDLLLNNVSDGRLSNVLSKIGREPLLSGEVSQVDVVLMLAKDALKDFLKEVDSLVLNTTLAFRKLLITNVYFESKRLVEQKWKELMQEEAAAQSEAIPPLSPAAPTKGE
Sequence of Protein Tat (P04608 whole entry): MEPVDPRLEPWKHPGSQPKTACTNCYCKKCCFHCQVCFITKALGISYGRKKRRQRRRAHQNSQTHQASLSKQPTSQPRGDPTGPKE
Sequence of Glutathione-S-transferase (Q26513 whole entry): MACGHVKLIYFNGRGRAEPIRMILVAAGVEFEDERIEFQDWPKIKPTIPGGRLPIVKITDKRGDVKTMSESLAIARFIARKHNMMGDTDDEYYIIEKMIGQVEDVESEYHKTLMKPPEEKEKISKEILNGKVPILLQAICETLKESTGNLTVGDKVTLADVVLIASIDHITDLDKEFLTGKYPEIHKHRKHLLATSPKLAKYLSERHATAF
Sequence of DNA (cytosine-5)-methyltransferase 1 (P26358 whole entry): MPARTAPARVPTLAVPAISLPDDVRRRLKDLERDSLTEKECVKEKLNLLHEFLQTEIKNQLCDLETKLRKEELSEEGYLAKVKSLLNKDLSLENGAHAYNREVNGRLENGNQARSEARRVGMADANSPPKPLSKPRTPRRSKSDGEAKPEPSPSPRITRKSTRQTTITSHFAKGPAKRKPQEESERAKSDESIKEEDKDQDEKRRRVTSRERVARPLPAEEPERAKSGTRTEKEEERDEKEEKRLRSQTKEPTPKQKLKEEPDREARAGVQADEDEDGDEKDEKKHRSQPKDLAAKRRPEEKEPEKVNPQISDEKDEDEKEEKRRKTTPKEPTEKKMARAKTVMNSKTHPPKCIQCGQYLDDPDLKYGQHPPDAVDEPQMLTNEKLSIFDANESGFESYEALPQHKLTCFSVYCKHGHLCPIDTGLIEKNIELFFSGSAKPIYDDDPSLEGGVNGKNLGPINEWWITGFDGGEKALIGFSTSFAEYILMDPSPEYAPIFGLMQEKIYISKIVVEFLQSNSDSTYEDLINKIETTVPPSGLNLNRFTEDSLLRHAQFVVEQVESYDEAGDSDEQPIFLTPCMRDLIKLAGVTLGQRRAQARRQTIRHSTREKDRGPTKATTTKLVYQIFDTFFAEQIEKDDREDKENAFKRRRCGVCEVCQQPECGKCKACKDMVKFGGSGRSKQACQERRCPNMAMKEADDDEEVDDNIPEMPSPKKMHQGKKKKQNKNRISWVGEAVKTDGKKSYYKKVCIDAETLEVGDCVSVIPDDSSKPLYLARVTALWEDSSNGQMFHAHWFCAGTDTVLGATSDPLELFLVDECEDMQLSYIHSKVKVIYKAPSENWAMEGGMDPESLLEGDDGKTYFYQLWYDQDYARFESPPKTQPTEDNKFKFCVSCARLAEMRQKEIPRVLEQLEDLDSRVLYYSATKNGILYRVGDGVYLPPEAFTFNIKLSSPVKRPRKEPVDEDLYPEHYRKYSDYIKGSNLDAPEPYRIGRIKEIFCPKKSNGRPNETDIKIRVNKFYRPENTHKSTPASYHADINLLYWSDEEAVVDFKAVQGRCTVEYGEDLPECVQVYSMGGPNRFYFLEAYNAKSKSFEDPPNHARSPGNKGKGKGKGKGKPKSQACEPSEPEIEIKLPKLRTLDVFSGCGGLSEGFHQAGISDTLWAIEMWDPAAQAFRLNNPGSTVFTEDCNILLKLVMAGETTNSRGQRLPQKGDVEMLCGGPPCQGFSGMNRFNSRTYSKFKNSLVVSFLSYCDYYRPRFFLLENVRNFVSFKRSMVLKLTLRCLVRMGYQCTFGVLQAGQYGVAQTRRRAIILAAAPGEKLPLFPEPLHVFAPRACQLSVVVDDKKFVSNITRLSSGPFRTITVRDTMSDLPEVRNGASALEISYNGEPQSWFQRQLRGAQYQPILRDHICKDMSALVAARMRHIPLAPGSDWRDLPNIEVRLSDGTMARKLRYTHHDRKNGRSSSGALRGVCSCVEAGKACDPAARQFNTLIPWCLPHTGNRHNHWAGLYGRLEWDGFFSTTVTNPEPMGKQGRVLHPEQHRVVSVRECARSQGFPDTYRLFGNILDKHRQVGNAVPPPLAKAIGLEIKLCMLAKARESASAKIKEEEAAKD
Sequence of Caspase-9 (P55211 1-315 limits assumed): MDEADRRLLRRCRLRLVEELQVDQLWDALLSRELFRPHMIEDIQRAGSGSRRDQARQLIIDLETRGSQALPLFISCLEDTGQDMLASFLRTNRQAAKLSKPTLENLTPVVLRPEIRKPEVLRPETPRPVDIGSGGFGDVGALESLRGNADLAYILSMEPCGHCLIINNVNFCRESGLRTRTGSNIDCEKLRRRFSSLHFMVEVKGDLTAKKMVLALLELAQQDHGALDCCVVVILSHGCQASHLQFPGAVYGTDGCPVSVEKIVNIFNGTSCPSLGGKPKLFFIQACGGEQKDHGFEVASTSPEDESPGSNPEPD
Sequence of Caspase-9 (P55211 331-416 limits assumed): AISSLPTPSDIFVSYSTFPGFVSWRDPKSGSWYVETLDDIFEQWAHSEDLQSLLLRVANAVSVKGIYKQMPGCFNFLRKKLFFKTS

SMILES: Cc1nnc(SCc2ccc(Cl)cc2)nc1/C=C/N(C)C
- EC50 [1]: > 60 µM (not active)
- EC50 [2]: 660 nM (active)
- EC50 (Transthyretin): > 167 µM (inactive)

SMILES: O=C(c1ccco1)N(CCC(c1ccccc1)c1ccco1)Cc1ccc(F)cc1 (stereo unspecified)
- CC50 [3]: > 40 µM (active)

- IC50 [4]: 3.71 µM (active)
- IC50 (Protein Tat): > 100 µM (inconclusive)
- IC50 [5]: > 100 µM (active)
SMILES: CC1=Nc2cccc3cccc(c23)N1

- IC50 [6]: > 123 µM (inactive)
- IC50 [7]: 4.99 µM (active)
- EC50 [8]: > 300 µM (not active)
- IC50 [9]: 3.2 µM (active)
- EC50 [10]: > 300 µM (not active)
- AC50 (Caspase-9): > 70 µM (inactive)
- AC50 [11]: 16.3 µM (active)
- IC50 [12]: 3.97 µM (active)
- AC50 (Caspase-6): 3.5 µM (active)
SMILES: Nc1cc(S(=O)(=O)O)cc([N+](=O)[O-])c1O
